Measurements reported in US11884682B2, “Compounds and their uses as MIF inhibitors” (NANJING IMMUNOPHAGE BIOTECH CO., LTD., priority 2020, dated 2024).

Experiments:
U251 cell = U251 cell proliferation assay (CCK-8); assay type: cell-based; settings: Homo sapiens, U-251; U251 cells; read-out: U251 Profileration pIC50 (converted)
Excerpt: [The source words this procedure for another cell line and reports this cell line under the same test.] (§1) The assay measures the ability of a compound to inhibit cell proliferation using Cell Counting Kit-8 (CCK-8), which allows sensitive colorimetric assays for the determination of cell viability in cell proliferation and cytotoxicity assays. The highly water-soluble tetrazolium salt, WST-8, is reduced by dehydrogenase activities in cells to give a yellow-color formazan dye, which is soluble in the tissue culture media. The amount of the formazan dye, generated by the activities of dehydrogenases in cells, is directly proportional to the number of living cells.
(§2) The assay was performed based on the instruction of the manufacturer (Dojindo Molecular Technologies Inc., Rockville, MD, USA). To start the assay, BV2 cells were seeded at a density of […] into 96-well plates and treated with test compounds, which were used at a top final assay concentration of 33.3 μM, diluted in assay medium with 1:3 dilutions to produce 10 point concentration responses, for 48 h. After incubation, the CCK-8 solution (10 μl) was added to each well of the plate and the plates were incubated in incubator at 37° C. for 3 h. Absorbance was recorded three times independently using a microplate reader (Bio-Rad Laboratories, Richmond, CA, USA) at 450 nm.

BV2 cells = test: BV2 cell proliferation assay (CCK-8); assay type: cell-based; settings: Mus musculus, BV-2, 48 h treatment, CCK-8, top concentration 33.3 μM, mean pIC50 of multiple test results, read-out: BV2 Profileration pIC50 (converted)
Excerpt: as §1, §2
Selected examples were tested in the BV2 cell proliferation. The data mentioned below represents a mean pIC50 value of multiple test results. It is understood that the data illustrated below may have reasonable variation depending on the specific conditions and procedures used by the person conducting the testing.

MIF = MIF (Homo sapiens (Human), UniProt P14174); test: MIF tautomerase assay using pHPP as substrate; assay type: biochemical; settings: cell-free, pHPP substrate 1.5 mM, MIF 3 nM; mean pIC50 of multiple test results
Sequence of MIF (P14174 2-115): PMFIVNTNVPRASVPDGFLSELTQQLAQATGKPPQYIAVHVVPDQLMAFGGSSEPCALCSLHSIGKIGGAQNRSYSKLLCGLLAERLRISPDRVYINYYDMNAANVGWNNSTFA
Protocol: Tautomerase Assay Using pHPP as substrate
This assay measured MIF's tautomerase activity in a cell-free system and was based on the determination of initial rates of the MIF-catalyzed conversion of the ketonic into the enolic tautomer of pHPP. This was achieved by spectrophotometric quantification of the complex between borate and the product of the reaction (enolic pHPP). The substrate was prepared by conversion of the enolic pHPP into its ketonic form. To achieve this, 0.5 M pHPP in methanol was diluted 10-fold with 50 mM sodium acetate buffer at pH 6.0, and then the suspension was shaken for 24 h at room temperature in darkness, and finally stored at 4° C. for not more than 1 week, with 5 min sonication being recommended before use.
Assays were performed in small-volume clear-bottom black 96 or 384-well polystyrene plates (Greiner Bio-One). First, 2 μL of the enzyme solution containing 6 nM of MIF in DPBS, 0.025% w/v BSA, and 300 μM CHAPS was dispensed onto sample and negative control wells using Multidrop Combi with metallic tip cassettes (Thermo Fisher Scientific) previously treated with Sigmacote. Then, 2 μL of the same buffer without MIF was dispensed onto positive control wells. The reaction was started by addition of the following to all wells: 2 μL of substrate solution containing 3 mM ketonic pHPP in 200 mM boric acid, 25 mM sodium phosphate, 0.025% w/v BSA, and 300 μM CHAPS at pH 6.0. In order to remove bubbles, the plate was centrifuged in an Allegra 25R centrifuge (Beckman Coulter, Inc., Brea, CA) at 1000 rpm for 2 min at room temperature. Then, the plate was read in an EnVision. Final concentrations of enzyme and substrate were 3 nM and 1.5 mM, respectively. Initial rates were calculated for each well as the slope of the absorbance progress curve.
The data mentioned below represents a mean pIC50 value of multiple test results. It is understood that the data illustrated below may have reasonable variation depending on the specific conditions and procedures used by the person conducting the testing.

Q: COc1cc(OCCO)ccc1C(=O)Nc1nnc(-c2cccs2)o1 [Compound 17, 4-(2-hydroxyethoxy)-2-methoxy-N-(5-(thiophen-2-yl)-1,3,4-oxadiazol-2-yl)benzamide] was tested. Which IC50 (U251 cell) did it give?
A: > 1000 µM

Q: And the IC50 (BV2 cells)?
A: 11.5 µM

Q: And the “Tautomerase Inhibition pIC50” value (MIF)?
A: 7.98

Q: Which results are given for COc1cc(OCC(=O)O)ccc1C(=O)Nc1nnc(-c2cccs2)o1 [Compound 19, 2-(3-methoxy-4-((5-(thiophen-2-yl)-1,3,4-oxadiazol-2-yl)carbamoyl)phenoxy)acetic acid]?
A: IC50 (U251 cell): > 1000 µM; IC50 (BV2 cells): > 1000 µM

Q: What does the source list for COc1cc(OC(C)(C)C(=O)O)ccc1C(=O)Nc1nnc(-c2cccs2)o1 [Compound 21, 2-(3-methoxy-4-((5-(thiophen-2-yl)-1,3,4-oxadiazol-2-yl)carbamoyl)phenoxy)-2-methyl propanoic acid]?
A: IC50 (U251 cell): > 1000 µM; IC50 (BV2 cells): > 1000 µM

Q: For COc1cc(OCc2nn[nH]n2)ccc1C(=O)Nc1nnc(-c2cccs2)o1 [Compound 22, 4-((2H-tetrazol-5-yl)methoxy)-2-methoxy-N-(5-(thiophen-2-yl)-1,3,4-oxadiazol-2-yl)benzamide], which IC50 (U251 cell) is on record?
A: > 1000 µM

Q: And the IC50 (BV2 cells)?
A: > 1000 µM

Q: And the “Tautomerase Inhibition pIC50” value (MIF)?
A: 7.91

Q: Which results are given for O=C(NCc1nnc(-c2cccs2)o1)c1ccccc1F [Compound 44, 2-fluoro-N-((5-(thiophen-2-yl)-1,3,4-oxadiazol-2-yl)methyl)benzamide]?
A: IC50 (U251 cell): > 1000 µM; IC50 (BV2 cells): 45.7 µM; Tautomerase Inhibition pIC50 (MIF): <5

Q: Which results are given for COc1cccc(OC)c1C(=O)NCc1nnc(-c2cccs2)o1 [Compound 46, 2,6-dimethoxy-N-((5-(thiophen-2-yl)-1,3,4-oxadiazol-2-yl)methyl)benzamide]?
A: IC50 (U251 cell): > 1000 µM; IC50 (BV2 cells): > 1000 µM; Tautomerase Inhibition pIC50 (MIF): 3.70

Q: Which results are given for COc1cc(N2CCOCC2)ccc1C(=O)NCc1nnc(-c2cccs2)o1 [Compound 51, 2-methoxy-4-morpholino-N-((5-(thiophen-2-yl)-1,3,4-oxadiazol-2-yl)methyl)benzamide]?
A: IC50 (U251 cell): > 1000 µM; IC50 (BV2 cells): 13.2 µM; Tautomerase Inhibition pIC50 (MIF): 6.29

Q: For COc1cc(N2CCOCC2)ccc1C(=O)N(C)Cc1nnc(-c2cccs2)o1 [Compound 52, 2-methoxy-N-methyl-4-morpholino-N-((5-(thiophen-2-yl)-1,3,4-oxadiazol-2-yl)methyl)benzamide], which IC50 (U251 cell) is on record?
A: > 1000 µM

Q: And the IC50 (BV2 cells)?
A: 3.63 µM

Q: And the “Tautomerase Inhibition pIC50” value (MIF)?
A: 4.20

Q: Which IC50 (U251 cell) does the source give for COc1cc(N2CCCCC2)ccc1C(=O)NCc1nnc(-c2cccs2)o1 [Compound 56, 2-methoxy-4-(piperidin-1-yl)-N-((5-(thiophen-2-yl)-1,3,4-oxadiazol-2-yl)methyl)benzamide] here?
A: > 1000 µM

Q: And the IC50 (BV2 cells)?
A: 16.2 µM

Q: And the “Tautomerase Inhibition pIC50” value (MIF)?
A: 6.13

Q: COc1cc(N2CCNCC2)ccc1C(=O)NCc1nnc(-c2cccs2)o1 [Compound 58, 2-methoxy-4-(piperazin-1-yl)-N-((5-(thiophen-2-yl)-1,3,4-oxadiazol-2-yl)methyl)benzamide] was tested. Which IC50 (U251 cell) did it give?
A: > 1000 µM

Q: And the IC50 (BV2 cells)?
A: 35.5 µM

Q: And the “Tautomerase Inhibition pIC50” value (MIF)?
A: 5.95

Q: For COc1cc(N2CCN(C)CC2)ccc1C(=O)NCc1nnc(-c2cccs2)o1 [Compound 59, 2-methoxy-4-(4-methylpiperazin-1-yl)-N-((5-(thiophen-2-yl)-1,3,4-oxadiazol-2-yl)methyl)benzamide], which IC50 (U251 cell) is on record?
A: > 1000 µM

Q: What about the IC50 (BV2 cells) of the same compound?
A: 40.7 µM

Q: And the “Tautomerase Inhibition pIC50” value (MIF)?
A: 5.90

Q: How did the “Tautomerase Inhibition pIC50” value (MIF) turn out when COc1cc(N2CCOCC2)ccc1C(=O)NCc1nnc(-c2ccns2)o1 [Compound 61, N-((5-(isothiazol-5-yl)-1,3,4-oxadiazol-2-yl)methyl)-2-methoxy-4-morpholinobenzamide] was run?
A: <5

Q: With COc1cc(N2CCOCC2)ccc1C(=O)NCc1nnc(-c2nccs2)o1 [Compound 62, 2-methoxy-4-morpholino-N-((5-(thiazol-2-yl)-1,3,4-oxadiazol-2-yl)methyl)benzamide] as the compound, how does the “Tautomerase Inhibition pIC50” value (MIF) read?
A: <5

Q: Which results are given for COc1cc(N2CCOCC2)ccc1C(=O)NCc1nnc(-c2ccccc2)o1 [Compound 63, 2-methoxy-4-morpholino-N-((5-phenyl-1,3,4-oxadiazol-2-yl)methyl)benzamide]?
A: IC50 (U251 cell): > 1000 µM; IC50 (BV2 cells): 21.4 µM; Tautomerase Inhibition pIC50 (MIF): <5

Q: Which “Tautomerase Inhibition pIC50” value (MIF) does the source give for COc1cc(N2CCOCC2)ccc1C(=O)NCc1nnc(-c2ccc(Cl)s2)o1 [Compound 64, N-((5-(5-chlorothiophen-2-yl)-1,3,4-oxadiazol-2-yl)methyl)-2-methoxy-4-morpholinobenzamide] here?
A: 4.79

Q: COc1cc(N2CCOCC2)ccc1C(=O)NC(C)(C)c1nnc(-c2cccs2)o1 [Compound 65, 2-methoxy-4-morpholino-N-(2-(5-(thiophen-2-yl)-1,3,4-oxadiazol-2-yl)propan-2-yl)benzamide] was tested. Which “Tautomerase Inhibition pIC50” value (MIF) did it give?
A: <5

Q: How did the “Tautomerase Inhibition pIC50” value (MIF) turn out when COc1cc(N2CCOCC2)ccc1C(=O)NC1(c2nnc(-c3cccs3)o2)CC1 [Compound 66, 2-methoxy-4-morpholino-N-(1-(5-(thiophen-2-yl)-1,3,4-oxadiazol-2-yl)cyclopropyl)benzamide] was run?
A: <5

Q: COc1cc(N2CCOCC2)ccc1C(=O)N(C)C(C)(C)c1nnc(-c2cccs2)o1 [Compound 68, 2-methoxy-N-methyl-4-morpholino-N-(2-(5-(thiophen-2-yl)-1,3,4-oxadiazol-2-yl)propan-2-yl)benzamide] was tested. Which “Tautomerase Inhibition pIC50” value (MIF) did it give?
A: 3.23

Q: For COc1cc(OCCN2CCOCC2)ccc1C(=O)NCc1nnc(-c2cccs2)o1 [Compound 69, 2-methoxy-4-(2-morpholinoethoxy)-N-((5-(thiophen-2-yl)-1,3,4-oxadiazol-2-yl)methyl)benzamide], which IC50 (U251 cell) is on record?
A: > 1000 µM

Q: What about the IC50 (BV2 cells) of the same compound?
A: 44.7 µM

Q: For COc1cc(OCCO)ccc1C(=O)NCc1nnc(-c2cccs2)o1 [Compound 70, 4-(2-hydroxyethoxy)-2-methoxy-N-((5-(thiophen-2-yl)-1,3,4-oxadiazol-2-yl)methyl)benzamide], which “Tautomerase Inhibition pIC50” value (MIF) is on record?
A: 6.12

Q: Which “Tautomerase Inhibition pIC50” value (MIF) does the source give for COCCOc1ccc(C(=O)NCc2nnc(-c3cccs3)o2)c(OC)c1 [Compound 71, 2-methoxy-4-(2-methoxyethoxy)-N-((5-(thiophen-2-yl)-1,3,4-oxadiazol-2-yl)methyl)benzamide] here?
A: 6.21

Q: For O=C1c2ccccc2CCN1Cc1nnc(-c2cccs2)o1 [Compound 72, 2-((5-(thiophen-2-yl)-1,3,4-oxadiazol-2-yl)methyl)-3,4-dihydroisoquinolin-1(2H)-one], which IC50 (U251 cell) is on record?
A: > 1000 µM

Q: What about the IC50 (BV2 cells) of the same compound?
A: 123 µM

Q: And the “Tautomerase Inhibition pIC50” value (MIF)?
A: <5

Q: How did the IC50 (U251 cell) turn out when COc1cc(N2CCC(O)C2)ccc1C(=O)NCc1nnc(-c2cccs2)o1 (stereo not drawn) [Compound 78, 4-(3-hydroxypyrrolidin-1-yl)-2-methoxy-N-((5-(thiophen-2-yl)-1,3,4-oxadiazol-2-yl)methyl)benzamide] was run?
A: > 1000 µM

Q: What about the IC50 (BV2 cells) of the same compound?
A: 79.4 µM

Q: Which results are given for COc1cc(NCCO)ccc1C(=O)NCc1nnc(-c2cccs2)o1 [Compound 79, 4-((2-hydroxyethyl)amino)-2-methoxy-N-((5-(thiophen-2-yl)-1,3,4-oxadiazol-2-yl)methyl)benzamide]?
A: IC50 (U251 cell): > 1000 µM; IC50 (BV2 cells): > 1000 µM

Q: What does the source list for CNCCOc1ccc(C(=O)NCc2nnc(-c3cccs3)o2)c(OC)c1 [Compound 80, 2-methoxy-4-(2-(methylamino)ethoxy)-N-((5-(thiophen-2-yl)-1,3,4-oxadiazol-2-yl)methyl)benzamide]?
A: IC50 (U251 cell): > 1000 µM; IC50 (BV2 cells): 26.3 µM

Q: Which results are given for COc1cc(OC2CCNC2)ccc1C(=O)NCc1nnc(-c2cccs2)o1 (stereo not drawn) [Compound 81, 2-methoxy-4-(pyrrolidin-3-yloxy)-N-((5-(thiophen-2-yl)-1,3,4-oxadiazol-2-yl)methyl)benzamide]?
A: IC50 (U251 cell): 35.5 µM; IC50 (BV2 cells): > 1000 µM

Q: Which IC50 (U251 cell) does the source give for COc1cc(C(C)(C)O)ccc1C(=O)NCc1nnc(-c2cccs2)o1 [Compound 83, 4-(2-hydroxypropan-2-yl)-2-methoxy-N-((5-(thiophen-2-yl)-1,3,4-oxadiazol-2-yl)methyl)benzamide] here?
A: > 1000 µM

Q: And the IC50 (BV2 cells)?
A: > 1000 µM
